# Results: patent US5057521A, “Use of bicyclic imidazole compounds for the treatment of hyperaldosteronism” (Ciba-Geigy Corporation, priority 1988, dated 1991)
# Tested on: adrenocortical cells prepared from an adrenoma of a patient suffering from Conn's syndrome
# Test: cells
# Details: Homo sapiens, read-out: concentration effecting maximum inhibition of aldosterone secretion stimulated by angiotensin II
smiles,measurement,value
"N#Cc1ccc(C2CCCc3cncn32)cc1 (racemic) [5-(p-cyanophenyl)-5,6,7,8-tetrahydroimidazo[1,5-a]pyridine]",IC (maximum),0.1 µM
